Source: patent US12214092B2, “Systems and methods for treating biological fluids” (Cerus Corporation, priority 2017, dated 2025)

What was measured:
[1] = test system: platelets; assay: Platelet quality, platelets in 100% plasma: 75 μM amotosalen + 340 nm (~6.4 or ~7.2 J/cm^2) or 150 μM + INT-100 (~3.6 J/cm^2, with CAD); type: cell-based
[2] = Plasma parameters pre- and post-illumination, whole-blood derived plasma, 50 μM amotosalen, ~6.4 J/cm^2
Description: This pool and split format was repeated four times to generate four replicates.

Compound: Cc1oc2c(C)c3oc(=O)cc(C)c3cc2c1COCCN [S-59, 3-(2-aminoethoxymethyl)-2,5,9-trimethylfuro[3,2-g]chromen-7-one]
- Extent of Shape Change (ESC) ([1]; 340/~6.4, D5): 22.15
- Hypotonic Shock Response (HSR) ([1]; 340/~6.4, D5): 56.50
- Morphology (Kunicki score) ([1]; 340/~6.4, D5): 271.50
- P-selectin (CD62P) ([1]; 340/~6.4, D5): 51.70
- pCO2 ([1]; 340/~6.4, D5): 35.00 mmHg
- pH @ 22° C. ([1]; 340/~6.4, D5): 7.15
- pH @ 37° C. ([1]; 340/~6.4, D5): 6.92
- pO2 ([1]; 340/~6.4, D5): 59.75 mmHg
- Extent of Shape Change (ESC) ([1]; 340/~6.4, D7): 16.45
- Hypotonic Shock Response (HSR) ([1]; 340/~6.4, D7): 45.98
- Morphology (Kunicki score) ([1]; 340/~6.4, D7): 259.00
- P-selectin (CD62P) ([1]; 340/~6.4, D7): 67.65
- pCO2 ([1]; 340/~6.4, D7): 30.95 mmHg
- pH @ 22° C. ([1]; 340/~6.4, D7): 6.95
- pH @ 37° C. ([1]; 340/~6.4, D7): 6.72
- pO2 ([1]; 340/~6.4, D7): 61.80 mmHg
- pCO2 ([1]; 340/~6.4, Post-UVA): 43.60 mmHg
- pH @ 22° C. ([1]; 340/~6.4, Post-UVA): 7.30
- pH @ 37° C. ([1]; 340/~6.4, Post-UVA): 7.07
- pO2 ([1]; 340/~6.4, Post-UVA): 42.90 mmHg
- Extent of Shape Change (ESC) ([1]; 340/~6.4, Pre-UVA): 20.60
- Hypotonic Shock Response (HSR) ([1]; 340/~6.4, Pre-UVA): 45.40
- Morphology (Kunicki score) ([1]; 340/~6.4, Pre-UVA): 265.50
- P-selectin (CD62P) ([1]; 340/~6.4, Pre-UVA): 31.95
- pCO2 ([1]; 340/~6.4, Pre-UVA): 55.20 mmHg
- pH @ 22° C. ([1]; 340/~6.4, Pre-UVA): 7.29
- pH @ 37° C. ([1]; 340/~6.4, Pre-UVA): 7.06
- pO2 ([1]; 340/~6.4, Pre-UVA): 37.60 mmHg
- Extent of Shape Change (ESC) ([1]; 340/~7.2, D5): 26.73
- Hypotonic Shock Response (HSR) ([1]; 340/~7.2, D5): 51.87
- Morphology (Kunicki score) ([1]; 340/~7.2, D5): 287.67
- P-selectin (CD62P) ([1]; 340/~7.2, D5): 45.00
- pCO2 ([1]; 340/~7.2, D5): 37.47 mmHg
- pH @ 22° C. ([1]; 340/~7.2, D5): 7.11
- pH @ 37° C. ([1]; 340/~7.2, D5): 6.88
- pO2 ([1]; 340/~7.2, D5): 49.33 mmHg
- Extent of Shape Change (ESC) ([1]; 340/~7.2, D7): 19.47
- Hypotonic Shock Response (HSR) ([1]; 340/~7.2, D7): 49.47
- Morphology (Kunicki score) ([1]; 340/~7.2, D7): 254.67
- P-selectin (CD62P) ([1]; 340/~7.2, D7): 56.93
- pCO2 ([1]; 340/~7.2, D7): 32.70 mmHg
- pH @ 22° C. ([1]; 340/~7.2, D7): 6.94
- pH @ 37° C. ([1]; 340/~7.2, D7): 6.72
- pO2 ([1]; 340/~7.2, D7): 56.07 mmHg
- pCO2 ([1]; 340/~7.2, Post-UVA): 47.23 mmHg
- pH @ 22° C. ([1]; 340/~7.2, Post-UVA): 7.32
- pH @ 37° C. ([1]; 340/~7.2, Post-UVA): 7.09
- pO2 ([1]; 340/~7.2, Post-UVA): 32.93 mmHg
- Extent of Shape Change (ESC) ([1]; 340/~7.2, Pre-UVA): 23.50
- Hypotonic Shock Response (HSR) ([1]; 340/~7.2, Pre-UVA): 49.67
- Morphology (Kunicki score) ([1]; 340/~7.2, Pre-UVA): 279.33
- P-selectin (CD62P) ([1]; 340/~7.2, Pre-UVA): 27.77
- pCO2 ([1]; 340/~7.2, Pre-UVA): 54.43 mmHg
- pH @ 22° C. ([1]; 340/~7.2, Pre-UVA): 7.31
- pH @ 37° C. ([1]; 340/~7.2, Pre-UVA): 7.08
- pO2 ([1]; 340/~7.2, Pre-UVA): 31.77 mmHg
- Extent of Shape Change (ESC) ([1]; INT-100, D5): 25.20
- Hypotonic Shock Response (HSR) ([1]; INT-100, D5): 55.10
- Morphology (Kunicki score) ([1]; INT-100, D5): 265.67
- P-selectin (CD62P) ([1]; INT-100, D5): 39.07
- pCO2 ([1]; INT-100, D5): 31.83 mmHg
- pH @ 22° C. ([1]; INT-100, D5): 7.16
- pH @ 37° C. ([1]; INT-100, D5): 6.93
- pO2 ([1]; INT-100, D5): 69.77 mmHg
- Extent of Shape Change (ESC) ([1]; INT-100, D7): 19.82
- Hypotonic Shock Response (HSR) ([1]; INT-100, D7): 46.00
- Morphology (Kunicki score) ([1]; INT-100, D7): 274.67
- P-selectin (CD62P) ([1]; INT-100, D7): 58.77
- pCO2 ([1]; INT-100, D7): 28.47 mmHg
- pH @ 22° C. ([1]; INT-100, D7): 6.96
- pH @ 37° C. ([1]; INT-100, D7): 6.74
- pO2 ([1]; INT-100, D7): 70.37 mmHg
- pCO2 ([1]; INT-100, Post-UVA): 54.60 mmHg
- pH @ 22° C. ([1]; INT-100, Post-UVA): 7.17
- pH @ 37° C. ([1]; INT-100, Post-UVA): 6.94
- pO2 ([1]; INT-100, Post-UVA): 62.87 mmHg
- Extent of Shape Change (ESC) ([1]; INT-100, Pre-UVA): 23.50
- Hypotonic Shock Response (HSR) ([1]; INT-100, Pre-UVA): 49.67
- Morphology (Kunicki score) ([1]; INT-100, Pre-UVA): 279.33
- P-selectin (CD62P) ([1]; INT-100, Pre-UVA): 27.77
- pCO2 ([1]; INT-100, Pre-UVA): 54.43 mmHg
- pH @ 22° C. ([1]; INT-100, Pre-UVA): 7.31
- pH @ 37° C. ([1]; INT-100, Pre-UVA): 7.08
- pO2 ([1]; INT-100, Pre-UVA): 31.77 mmHg
- Factor II ([2]; 340 nm, Post-UVA): 84.00 IU/dL
- Factor V ([2]; 340 nm, Post-UVA): 88.83 IU/dL
- Factor VIII ([2]; 340 nm, Post-UVA): 127.18 IU/dL
- Factor X ([2]; 340 nm, Post-UVA): 84.68 IU/dL
- Factor XI ([2]; 340 nm, Post-UVA): 73.93 IU/dL
- Fibrinogen ([2]; 340 nm, Post-UVA): 259.75 mg/dL
- PT ([2]; 340 nm, Post-UVA): 12.03 s
- Protein C ([2]; 340 nm, Post-UVA): 122.33 IU/dL
- Protein S ([2]; 340 nm, Post-UVA): 118.03 IU/dL
- Total Protein ([2]; 340 nm, Post-UVA): 72.43 mg/mL
- aPTT ([2]; 340 nm, Post-UVA): 33.95 s
- pCO2 @ 37° C. ([2]; 340 nm, Post-UVA): 66.75 mmHg
- pH @ 37° C. ([2]; 340 nm, Post-UVA): 7.20
- pO2 @ 37° C. ([2]; 340 nm, Post-UVA): 42.88 mmHg
- Factor II ([2]; 340 nm, Pre-UVA): 93.43 IU/dL
- Factor V ([2]; 340 nm, Pre-UVA): 97.08 IU/dL
- Factor VIII ([2]; 340 nm, Pre-UVA): 165.50 IU/dL
- Factor X ([2]; 340 nm, Pre-UVA): 96.68 IU/dL
- Factor XI ([2]; 340 nm, Pre-UVA): 85.65 IU/dL
- Fibrinogen ([2]; 340 nm, Pre-UVA): 290.00 mg/dL
- PT ([2]; 340 nm, Pre-UVA): 11.68 s
- Protein C ([2]; 340 nm, Pre-UVA): 133.90 IU/dL
- Protein S ([2]; 340 nm, Pre-UVA): 119.00 IU/dL
- Total Protein ([2]; 340 nm, Pre-UVA): 72.13 mg/mL
- aPTT ([2]; 340 nm, Pre-UVA): 31.15 s
- pCO2 @ 37° C. ([2]; 340 nm, Pre-UVA): 67.38 mmHg
- pH @ 37° C. ([2]; 340 nm, Pre-UVA): 7.19
- pO2 @ 37° C. ([2]; 340 nm, Pre-UVA): 131.80 mmHg
- Factor II ([2]; INT-100, Post-UVA): 110.93 IU/dL
- Factor V ([2]; INT-100, Post-UVA): 90.25 IU/dL
- Factor VIII ([2]; INT-100, Post-UVA): 108.85 IU/dL
- Factor X ([2]; INT-100, Post-UVA): 84.53 IU/dL
- Factor XI ([2]; INT-100, Post-UVA): 76.63 IU/dL
- Fibrinogen ([2]; INT-100, Post-UVA): 261.50 mg/dL
- PT ([2]; INT-100, Post-UVA): 12.28 s
- Protein C ([2]; INT-100, Post-UVA): 109.30 IU/dL
- Protein S ([2]; INT-100, Post-UVA): 121.80 IU/dL
- Total Protein ([2]; INT-100, Post-UVA): 70.35 mg/mL
- aPTT ([2]; INT-100, Post-UVA): 33.98 s
- pCO2 @ 37° C. ([2]; INT-100, Post-UVA): 60.68 mmHg
- pH @ 37° C. ([2]; INT-100, Post-UVA): 7.24
- pO2 @ 37° C. ([2]; INT-100, Post-UVA): 41.55 mmHg
- Factor II ([2]; INT-100, Pre-UVA): 91.45 IU/dL
- Factor V ([2]; INT-100, Pre-UVA): 98.55 IU/dL
- Factor VIII ([2]; INT-100, Pre-UVA): 154.25 IU/dL
- Factor X ([2]; INT-100, Pre-UVA): 92.40 IU/dL
- Factor XI ([2]; INT-100, Pre-UVA): 89.55 IU/dL
- Fibrinogen ([2]; INT-100, Pre-UVA): 278.75 mg/dL
- PT ([2]; INT-100, Pre-UVA): 11.48 s
- Protein C ([2]; INT-100, Pre-UVA): 98.55 IU/dL
- Protein S ([2]; INT-100, Pre-UVA): 111.88 IU/dL
- Total Protein ([2]; INT-100, Pre-UVA): 80.18 mg/mL
- aPTT ([2]; INT-100, Pre-UVA): 30.35 s
- pCO2 @ 37° C. ([2]; INT-100, Pre-UVA): 69.20 mmHg
- pH @ 37° C. ([2]; INT-100, Pre-UVA): 7.22
- pO2 @ 37° C. ([2]; INT-100, Pre-UVA): 141.95 mmHg
